For one assay, the target named is Calpain/Cathepsin. Conditions: cited from earlier work.
In a further assay the test system is U-937 cells. The assay can be described thus: Mitochondrial permeability transition pore (MPTP) calcein-cobalt assay. The class given is cell-based, Human. Conditions: calcein-cobalt quenching. How it is done:
Mitochondrial Permeability Transition Pore (MPTP) Calcein-Cobalt Assay.
U-937 cells (1×10^6 cells/mL in HBSS) were loaded with calcein-AM (20 nM final concentration) for 45 minutes at 37° C. The cells were washed with HBSS and resuspended in RPMI and plated into a 24-well plate (1×10^6 cells in 1 mL). The cells were treated with Raptinal (10 μM) for 15, 30, 45, 60 and 90 minutes. Cobalt(II) chloride was added (10 μL of 80 mM stock in HBSS) to the cells 10 minutes prior to the end of the time points. The cells were pelleted and resuspended in HBSS (0.5 mL) and calcein fluorescence was measured by flow cytometry. As a positive control for MPTP, ionomycin and calcium were added to calcein-labeled cells in HBSS 10 minutes prior to analysis by flow cytometry.

Another assay deals with Granzyme B (Homo sapiens, UniProt P10144). Conditions: cited from earlier work.
Granzyme B, sequence (P10144 21-247, species assumed): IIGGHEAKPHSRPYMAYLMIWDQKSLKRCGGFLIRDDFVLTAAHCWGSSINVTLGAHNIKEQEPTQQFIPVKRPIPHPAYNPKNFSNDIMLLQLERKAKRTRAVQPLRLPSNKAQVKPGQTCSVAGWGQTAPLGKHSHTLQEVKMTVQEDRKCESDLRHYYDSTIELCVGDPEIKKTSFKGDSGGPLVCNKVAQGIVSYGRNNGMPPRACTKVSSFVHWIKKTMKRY
The test system of assay [1] is isolated mitochondria (U-937 cells). As to the kind of experiment: In vitro cytochrome c release from isolated mitochondria. It is filed as biochemical, Human. Conditions: respiring and non-respiring conditions, 30 min, Western blot. How it is done: In Vitro Cytochrome c Release from Isolated Mitochondria.
U-937 cells (120×10^6) were washed twice in PBS and resuspended in 800 μL ice-cold lysis buffer (50 mM HEPES, 5 mM DTT, 5 mM PMSF, 25 mM MgCl2, protease cocktail inhibitor, pH 7.5) and the cells were passed through a 26 gauge needle 26 times using a 1 mL syringe until >95% cells were lysed as determined by trypan blue. Isolation buffer (0.25 M sucrose in lysis buffer pH 7.5) was added to the lysed cells (2.4 mL) and mixed by inversion. Debris was removed by centrifugation (500×g. 10 min at 4° C.) and the mitochondria in the supernatant were pelleted by centrifugation (10000×g, 5 min at 4° C.). The mitochondrial pellet was resuspended in washing buffer (2 mL of 50 mM HEPES, 250 mM KCl, 25 mM EDTA, pH 7.5) and incubated on ice for 2 min and centrifuged (12500×g, 5 min). The mitochondrial pellet was resuspended in either non-respiration (300 μL of 50 mM HEPES, 5 mM DTT, 5 mM PMSF, 25 mM MgCl2, protease inhibitor, 250 mM KCl, 25 mM EDTA, pH 7.5) or respiration buffer (300 μL of 50 mM HEPES, […], 5 mM ATP, 0.4 mM ADP, 25 mM sodium succinate, 10 mM potassium phosphate dibasic, pH 7.5). […]

“Also recorded” adds a separate entry of the source. Non-standard residues stand in square brackets, D forms with d. Residues, ends and D or L forms follow the SMILES beside them. *: point of attachment. Nle = CCCC[C@H](N)C(=O)O; Cbz = O=C(OCc1ccccc1)*; CH2Cl = ClC*

Take `CCCC[C@@H](C=O)NC(=O)[C@H](CC(C)C)NC(=O)[C@H](CC(C)C)NC(C)=O` [Calpain/Cathepsin Inhibitor I] (Ac-Leu-Leu-[Nle]-aldehyde): the Ki at Calpain/Cathepsin is 0.12 to 0.23 µM.
Turning to `C[C@H](CCC(=O)O)C[C@H](C)C[C@H](C)C(=O)/C=C(\O)[C@H](C)C[C@H](C)C/C=C/[C@@H](C)[C@@H](O)[C@@H](C)[C@@H](O)C[C@@H]1CC[C@@](C)([C@H]2CC[C@@](C)([C@@H](C)O)O2)O1` [lonomycin, ionomycin, reference compound], the “mitochondrial permeability transition pore (MPTP) formation” value with U-937 cells is “able to induce MPTP”.
As for `CC(NC(=O)OCc1ccccc1)C(=O)NC(C)C(=O)NC(CC(=O)O)C(=O)CCl` (stereo not drawn) [Granzyme B Inhibitor I] (Cbz-Ala-Ala-Asp-CH2Cl; configuration not given here), the Ki on Granzyme B was 0.3 µM.

B1: Bid: known pro-apoptotic protein; full-length recombinant Bid from R&D Systems (protein, UniProt P55957 1-195, looked up)
chain: MDCEVNNGSSLRDECITNLLVFGFLQSCSDNSFRRELDALGHELPVLAPQWEGYDELQTDGNRSSHSRLGRIEADSESQEDIIRNIARHLAQVGDSMDRSIPPGLVNGLALQLRNTSRSEEDRNRDLATALEQLLQAYPRDMEKEKTMLVLALLLAKKVASHTPSLLRDVFHTTVNFINQNLRTYVRSLARNGMD
modifications: full-length
notes: known pro-apoptotic protein; full-length recombinant Bid from R&D Systems
Take B1: the “cytochrome c release from isolated mitochondria” value in assay [1] is “able to induce cytochrome c release; also recorded: capable of releasing cytochrome c under both conditions”.

One may read the Ki as the dissociation constant of the complex between target and ligand, obtained from inhibition or displacement.
